Reference: the supplement of paper PMC10331698
± gives the standard deviation of the averaged measurements.

Tests used:
Experiment in all cases: level (log10 ratio to DMSO vehicle control); higher = higher biomarker level / cell amount than vehicle control
Settings in all cases: in DMSO
[1] = compound: O=C(O)CCC(F)(F)C(F)(F)C(F)(F)F [3:3 Fluorotelomer carboxylic acid]
Method: (§1)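 BioMAP Diversity Plus panel of 12 human primary cell co-culture systems (3C, 4H, LPS, SAg, BT, BF4T, BE3C, CASM3C, HDF3CGF, KF3CT, MyoF, Mphg). Compounds were added 1 h before stimulation and left for 24 h (MyoF 48 h; BT 72 h for soluble read-outs or 6 d for IgG). Biomarkers were read by ELISA, cytotoxicity by SRB, PBMC viability and proliferation by Alamar Blue. Each well value was divided by the mean of 8 DMSO control wells on the same plate and log10 transformed; duplicate blinded samples were tested at 4 concentrations.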

[2] = compound: O=C(O)C(F)(F)C(F)(F)C(F)(F)C(F)(F)C(F)(F)C(F)(F)C(F)(F)C(F)(F)C(F)(F)C(F)(F)C(F)(F)C(F)(F)F [Perfluorotridecanoic acid]
Method: as §1

[3] = compound: O=C(O)C(F)(F)C(F)(F)C(F)(F)C(F)(F)C(F)(F)C(F)(F)C(F)(F)C(F)(F)Cl [9-Chloro-perfluorononanoic acid]
Method: as §1

[4] = compound: OCC(F)(F)C(F)(F)C(F)(F)C(F)(F)C(F)(F)C(F)F [1H,1H,7H-Dodecafluoro-1-heptanol]
Method: as §1

[5] = compound: O=S(=O)(O)C(F)(F)C(F)(F)C(F)(F)C(F)(F)C(F)(F)C(F)(F)C(F)(F)C(F)(F)F [Perfluorooctanesulfonic acid]
Method: as §1

Hexafluoroglutaric acid = compound: O=C(O)C(F)(F)C(F)(F)C(F)(F)C(=O)O [Hexafluoroglutaric acid]
Method: as §1

| Test System | level (log10) ([1]; 6700 nM) | level (log10) ([1]; 20000 nM) | level (log10) ([1]; 60000 nM) | level (log10) ([2]; 1500 nM) | level (log10) ([2]; 4400 nM) | level (log10) ([2]; 13000 nM) | level (log10) ([2]; 40000 nM) | level (log10) ([3]; 6700 nM) | level (log10) ([3]; 20000 nM) | level (log10) ([4]; 6700 nM) | level (log10) ([4]; 20000 nM) | level (log10) ([4]; 60000 nM) | level (log10) ([5]; 6700 nM) | level (log10) ([5]; 20000 nM) | level (log10) ([5]; 60000 nM) | level (log10) (Hexafluoroglutaric acid; 6700 nM) | level (log10) (Hexafluoroglutaric acid; 20000 nM) | level (log10) (Hexafluoroglutaric acid; 60000 nM) |
| --- | --- | --- | --- | --- | --- | --- | --- | --- | --- | --- | --- | --- | --- | --- | --- | --- | --- | --- |
| 3C:CCL2/MCP-1 | -0.011 ± 0.013 | -0.0025 ± 0.005 | 0.022 ± 0.037 | 0.0135 ± 0.0078 | -0.021 ± 0.0014 | -0.001 ± 0.0085 | 0.0035 ± 0.0035 | 0.015 ± 0.054 | -0.0065 ± 0.037 | 0.0225 ± 0.021 | 0.0145 ± 0.023 | 0.0325 ± 0.012 | 0.0115 ± 0.0035 | -0.012 ± 0.0028 | -0.0065 ± 0.013 | -0.0005 ± 0.0035 | 0.0095 ± 0.0035 | 0.028 ± 0.018 |
| 3C:CD54/ICAM-1 | -0.019 ± 0.0099 | -0.009 ± 0.023 | -0.0015 ± 0.023 | 0.001 ± 0.016 | -0.0125 ± 0.019 | -0.0155 ± 0.025 | -0.0105 ± 0.0078 | -0.0075 ± 0.0092 | -0.0085 ± 0.019 | -0.009 ± 0.011 | -0.003 ± 0.0099 | -0.0055 ± 0.0021 | 0.004 ± 0.023 | 0.0185 ± 0.019 | 0.071 ± 0.024 | -0.0125 ± 0.018 | -0.0165 ± 0.019 | -0.0175 ± 0.018 |
| 3C:CD62E/E-Selectin | -0.006 ± 0.0042 | 0.001 ± 0.013 | 0.006 ± 0.0071 | -0.0015 ± 0.019 | -0.0045 ± 0.0064 | -0.0005 ± 0.011 | -0.01 ± 0.018 | -0.005 ± 0.0057 | 0.001 ± 0.017 | -0.0135 ± 0.025 | -0.007 ± 0.0042 | 0.0205 ± 0.025 | 0.004 ± 0.0042 | 0.0175 ± 0.018 | 0.0695 ± 0.011 | -0.0035 ± 0.053 | -0.002 ± 0.038 | 0.031 ± 0.014 |
| 3C:CD106/VCAM-1 | -0.0135 ± 0.022 | -0.028 ± 0.024 | -0.019 ± 0.0085 | 0.0125 ± 0.012 | -0.0055 ± 0.016 | -0.0185 ± 0.019 | -0.0165 ± 0.018 | -0.005 ± 0.0014 | -0.001 ± 0.021 | 0.001 ± 0.0042 | -0.0245 ± 0.032 | -0.0195 ± 0.016 | 0.0005 ± 0.026 | 0.0045 ± 0.035 | 0.0295 ± 0.015 | 0.009 ± 0.018 | 0.004 ± 0.021 | -0.008 ± 0.0057 |
| 3C:CD141/Thrombomodulin | -0.0105 ± 0.011 | -0.018 ± 0.047 | -0.006 ± 0.013 | -0.0075 ± 0.059 | -0.0355 ± 0.079 | -0.042 ± 0.065 | -0.0505 ± 0.071 | -0.017 ± 0.016 | -0.008 ± 0.02 | -0.007 ± 0.057 | 0.0065 ± 0.044 | -0.017 ± 0.058 | -0.0015 ± 0.012 | -0.0025 ± 0.011 | 0.0455 ± 0.022 | -0.018 ± 0.017 | -0.014 ± 0.011 | -0.034 ± 0.0099 |
| 3C:CD142/Tissue Factor | -0.024 ± 0.0014 | 0.0015 ± 0.0078 | 0.0275 ± 0.011 | 0.034 ± 0.023 | 0.024 ± 0.042 | 0.0425 ± 0.025 | 0.0615 ± 0.00071 | -0.008 ± 0.057 | 0.025 ± 0.0057 | 0.001 ± 0.0057 | 0.017 ± 0.041 | 0.001 ± 0.05 | -0.0185 ± 0.07 | -0.0285 ± 0.073 | 0.0315 ± 0.067 | -0.006 ± 0.02 | -0.004 ± 0.028 | -0.0685 ± 0.005 |
| BE3C:Keratin 8/18 | 0.0025 ± 0.0021 | -0.003 ± 0.0042 | -0.023 ± 0.0057 | 0.0095 ± 0.0078 | 0.016 ± 0.0042 | -0.0035 ± 0.0021 | 0.005 ± 0.0014 | -0.0025 ± 0.015 | 0.0095 ± 0.0092 | -0.004 ± 0.0042 | 0.006 ± 0.014 | -0.0135 ± 0.0035 | 0.0205 ± 0.0021 | 0.016 ± 0.011 | -0.073 ± 0.04 | -0.006 ± 0.0085 | -0.018 ± 0.0014 | -0.003 ± 0.0042 |
| BE3C:MMP-1 | -0.006 ± 0.037 | -0.0235 ± 0.011 | 0.0125 ± 0.044 | -0.014 ± 0.035 | 0.0385 ± 0.05 | 0.0445 ± 0.043 | 0.0615 ± 0.028 | 0.083 ± 0.024 | 0.277 ± 0.0064 | 0.0045 ± 0.022 | 0 ± 0.025 | 0.029 ± 0.0057 | 0.149 ± 0.067 | 0.155 ± 0.012 | -0.0685 ± 0.26 | -0.011 ± 0.0099 | -0.023 ± 0.016 | 0.007 ± 0.058 |
| BE3C:MMP-9 | -0.0025 ± 0.022 | 0.0085 ± 0.0078 | -0.0085 ± 0.025 | -0.0105 ± 0.0035 | 0.0005 ± 0.023 | -0.0065 ± 0.0035 | -0.0235 ± 0.00071 | 0.001 ± 0.014 | -0.04 ± 0.014 | -0.009 ± 0.0028 | -0.0105 ± 0.00071 | -0.02 ± 0.0028 | -0.0185 ± 0.018 | -0.117 ± 0.0035 | -0.215 ± 0.086 | -0.0035 ± 0.023 | -0.0025 ± 0.032 | 0.0145 ± 0.042 |
| BE3C:PAI-I | -0.0095 ± 0.00071 | -0.0025 ± 0.015 | 0.0005 ± 0.0078 | 0.006 ± 0.017 | 0.0335 ± 0.0035 | -0.004 ± 0.042 | -0.0285 ± 0.054 | 0.0005 ± 0.0035 | -0.215 ± 0.017 | -0.007 ± 0.0057 | -0.009 ± 0.0099 | -0.0105 ± 0.0078 | -0.006 ± 0.0014 | -0.195 ± 0.0028 | -0.301 ± 0.0035 | -0.0205 ± 0.016 | -0.014 ± 0.027 | 0.002 ± 0.03 |
| BE3C:SRB | -0.0065 ± 0.0064 | -0.0065 ± 0.005 | 0.001 ± 0.013 | 0.0085 ± 0.019 | -0.0035 ± 0.0021 | -0.0055 ± 0.0078 | 0.0035 ± 0.0021 | -0.0045 ± 0.0064 | -0.0805 ± 0.005 | 0.001 ± 0.0071 | -0.009 ± 0.011 | 0.0025 ± 0.00071 | -0.0095 ± 0.0064 | -0.2205 ± 0.00071 | -0.371 ± 0.016 | 0.0035 ± 0.0035 | -0.005 | 0.0125 ± 0.012 |
| BE3C:tPA | -0.0195 ± 0.0035 | -0.03 ± 0.016 | -0.0365 ± 0.015 | 0.096 ± 0.011 | 0.115 ± 0.0021 | 0.0955 ± 0.032 | 0.03 ± 0.0071 | 0.0195 ± 0.023 | -0.0985 ± 0.023 | -0.0125 ± 0.0064 | -0.0285 ± 0.018 | -0.029 ± 0.018 | 0.119 ± 0.013 | -0.09 ± 0.0099 | -0.253 ± 0.025 | -0.008 ± 0.0014 | -0.0465 ± 0.005 | -0.0085 ± 0.022 |
| BE3C:uPA | -0.0045 ± 0.023 | -0.018 ± 0.017 | -0.0115 ± 0.0021 | -0.0005 ± 0.00071 | 0.008 ± 0.0099 | -0.01 ± 0.02 | -0.0085 ± 0.046 | 0.0035 ± 0.011 | -0.0125 ± 0.011 | -0.0055 ± 0.032 | -0.004 ± 0.027 | -0.0055 ± 0.0035 | -0.003 ± 0.0099 | -0.031 | -0.122 ± 0.013 | -0.01 ± 0.0085 | -0.017 ± 0.0042 | -0.0075 ± 0.011 |
| CASM3C:CCL2/MCP-1 | -0.011 ± 0.021 | -0.015 ± 0.0028 | -0.0135 ± 0.022 | -0.0135 ± 0.0021 | -0.043 ± 0.033 | -0.04 ± 0.033 | 0.0315 ± 0.033 | -0.0085 ± 0.011 | -0.011 ± 0.0028 | -0.0065 ± 0.013 | -0.017 ± 0.02 | -0.008 ± 0.033 | -0.0025 ± 0.015 | -0.0065 ± 0.0064 | 0.019 ± 0.023 | -0.0115 ± 0.033 | -0.024 ± 0.025 | 0.0205 ± 0.039 |
| CASM3C:CD87/uPAR | -0.01 ± 0.0071 | 0.002 ± 0.011 | -0.01 ± 0.018 | 0.0185 ± 0.011 | 0.028 ± 0.0014 | -0.01 ± 0.013 | 0.0015 ± 0.019 | -0.002 | 0.02 ± 0.0071 | -0.001 ± 0.016 | 0.0035 ± 0.021 | -0.0055 ± 0.023 | -0.0005 ± 0.0078 | -0.0085 ± 0.015 | -0.016 ± 0.016 | -0.001 ± 0.014 | -0.0185 ± 0.033 | -0.0075 ± 0.0035 |
| CASM3C:CD106/VCAM-1 | -0.0255 ± 0.0035 | -0.03 ± 0.0057 | -0.0295 ± 0.015 | -0.017 ± 0.05 | -0.0515 ± 0.015 | -0.167 ± 0.083 | -0.22 ± 0.054 | -0.029 ± 0.0014 | -0.027 ± 0.016 | -0.0025 ± 0.022 | -0.017 ± 0.0057 | -0.017 ± 0.024 | -0.035 ± 0.0028 | -0.038 ± 0.016 | -0.104 ± 0.041 | -0.0105 ± 0.03 | -0.0125 ± 0.036 | 0.012 ± 0.011 |
